Test system: Female Sprague Dawley CD rats, ovx
Assay: 6-week ovariectomized rat model
Type: in vivo
Conditions: 2 μg/rat s.c. daily, mean ± SEM
Source text: Female Sprague Dawley CD rats, ovx or sham ovx, were obtained 1 day after surgery from Taconic Farm (weight range 240-275 g). They were housed 3 or 4 rats/cage in a room on a 14/10 (light/dark) schedule and provided with food (Purina 500 rat chow) and water ad libitum. Treatment for all studies began 1 day after the animals arrival and dosed 5 or 7 days per week as indicated for 6 weeks. A group of age matched sham operated rats not receiving any treatment served as an intact, estrogen replete control group for each study. All treatments were prepared in 1% […] in normal saline at defined concentrations so that the treatment volume was 0.1 mL/100 g body weight. 17-beta estradiol was dissolved in corn oil (20 uG/mL) and delivered subcutaneously; 0.1 mL/rat. All dosages were adjusted at three week intervals according to group mean body weight measurements.
Five weeks after the initiation of treatment and one week prior to the termination of the study, each rat was evaluated for bone mineral density (BMD). The BMD's of the proximal tibiae (PT) and fourth lumbar vertabrae (L4) were measured in anesthetized, rats using a dual energy X-ray absorptiometer (Eclipse XR-26, Norland Corp. Ft. Atkins, Wis.). […] Total choleserol is determined using a Boehringer-Mannheim Hitachi 911 clinical analyzer using the Cholesterol/HP kit. […]

C[C@]12CC[C@@H]3c4ccc(O)cc4CC[C@H]3[C@@H]1CC[C@@H]2O [17β-estradiol]
BMD L4 (following 5 weeks of treatment): 0.169 ± 0.004 mg/cm^2 | Cholesterol (following 6 weeks of treatment): 95.5 ± 3.9 mg/dL

Reference: patent US8815934B2, “2-Phenyl-1-[4-(2-Aminoethoxy)-Benzyl]-Indole and estrogen formulations” (Wyeth LLC, priority 1998, dated 2014)
